Data reported in paper PMC6792352, “Limited Chemical Structural Diversity Found to Modulate Thyroid Hormone Receptor in the Tox21 Chemical Library” (Environmental Health Perspectives, 2019).
Structures can show the parent of a compound that is named as a salt.

Assay: in vitro
Settings: rat, gh3-tre-luc cells

In the case of `CCCCCC[C@@H](CCC)C(=O)O` [(2R)-2-Propyloctanoic acid], the CC50 at 24 h (AC50 (uM) modified / 1000) is reported as > 50 µM.
`O=C(O)[C@@H](S)[C@H](S)C(=O)O` [(2R,3R)-2,3-Dimercaptosuccinic acid] showed a CC50 at 24 h (AC50 (uM) modified / 1000) of 22.8 µM.
In the case of `CC(Cc1ccc(C(C)(C)C)cc1)CN1C[C@@H](C)O[C@@H](C)C1` (stereo partly drawn) [(2R,6S)-Fenpropimorph], the CC50 at 24 h (AC50 (uM) modified / 1000) is reported as > 90 µM.
For `COc1ccc(OC)c(C[C@H](C)N)c1` [(2S)-1-(2,5-Dimethoxyphenyl)propan-2-amine hydrogen chloride (1:1)], the CC50 at 24 h (AC50 (uM) modified / 1000, Tox21_110001=Tox21_112851, viability, 1 nM T3 present, 24 h) was > 100 µM.
`CCC(=O)O[C@](Cc1ccccc1)(c1ccccc1)[C@H](C)CN(C)C` [(2S,3R)-(+)-4-(Dimethylamino)-3-methyl-1,2-diphenyl-2-butanol propionate hydrochloride] gave a CC50 at 24 h (AC50 (uM) modified / 1000, Tox21_110001=Tox21_112860, viability, 1 nM T3 present, 24 h) of 30.1 µM.
For `CC[C@H](C)[C@@H](C(=O)O)n1sc2ccccc2c1=O` [(2S,3S)-3-Methyl-2-(3-oxo-1,2-benzothiazol-2(3H)-yl)pentanoic acid], the CC50 at 24 h (AC50 (uM) modified / 1000) was > 90 µM.
For `CC(C)[C@@H]1CC[C@@H](C)CC1=O` [(2S,5R)-5-Methyl-2-(propan-2-yl)cyclohexanone], the CC50 at 24 h (AC50 (uM) modified / 1000) was > 90 µM.
With `CC/C=C\C#N` [(2Z)-2-Pentenenitrile] the CC50 at 24 h (AC50 (uM) modified / 1000) was > 90 µM.
In the case of `CC(C)=CCC/C(C)=C\CO` [(2Z)-3,7-Dimethylocta-2,6-dien-1-ol], the CC50 at 24 h (AC50 (uM) modified / 1000) is reported as > 90 µM.
For `CC(C)=CCC/C(C)=C\C#N` [(2Z)-3,7-Dimethylocta-2,6-dienenitrile], the CC50 at 24 h (AC50 (uM) modified / 1000) was > 90 µM.
In the case of `CCC(=O)O[C@H]1[C@@H](N2CCCCC2)C[C@H]2[C@@H]3CC[C@H]4C[C@H](OC(C)=O)[C@@H](N5CCCCC5)C[C@]4(C)[C@H]3CC[C@@]21C` [(2beta,3alpha,5alpha,16beta,17beta)-3-Acetoxy-2,16-di(1-piperidinyl)androstan-17-yl propionate], the CC50 at 24 h (AC50 (uM) modified / 1000) is reported as > 50 µM.
With `Cc1cc(C)n(CO)n1` [(3,5-Dimethyl-1H-pyrazol-1-yl)methanol] the CC50 at 24 h (AC50 (uM) modified / 1000) was > 90 µM.
With `CCO[Si](CCCCl)(OCC)OCC` [(3-Chloropropyl)(triethoxy)silane] the CC50 at 24 h (AC50 (uM) modified / 1000) was > 90 µM.
In the case of `CO[Si](CCCCl)(OC)OC` [(3-Chloropropyl)trimethoxysilane], the CC50 at 24 h (AC50 (uM) modified / 1000) is reported as > 90 µM.
With `CCO[Si](CCCN=C=O)(OCC)OCC` [(3-Isocyanatopropyl)triethoxysilane] the CC50 at 24 h (AC50 (uM) modified / 1000) was > 90 µM.
For `CC/C=C\CCOC(C)=O` [(3Z)-3-Hexenyl acetate], the CC50 at 24 h (AC50 (uM) modified / 1000) was > 90 µM.
With `CC/C=C\CCOC(=O)C(C)C` [(3Z)-Hex-3-en-1-yl 2-methylpropanoate] the CC50 at 24 h (AC50 (uM) modified / 1000) was > 90 µM.
In the case of `C/C=C(\C)C(=O)OCC/C=C\CC` [(3Z)-Hex-3-en-1-yl (2E)-2-methylbut-2-enoate], the CC50 at 24 h (AC50 (uM) modified / 1000) is reported as > 90 µM.
With `CC/C=C\CCOC(=O)c1ccccc1` [(3Z)-Hex-3-en-1-yl benzoate] the CC50 at 24 h (AC50 (uM) modified / 1000) was > 90 µM.
In the case of `CC/C=C\CCOC(=O)CCCCC` [(3Z)-Hex-3-en-1-yl hexanoate], the CC50 at 24 h (AC50 (uM) modified / 1000) is reported as > 90 µM.
With `CC/C=C\CCOC(=O)CC` [(3Z)-Hex-3-en-1-yl propanoate] the CC50 at 24 h (AC50 (uM) modified / 1000) was > 90 µM.
For `CC1(C)CCC[C@]2(C)[C@H]3CC(=O)O[C@]3(C)CC[C@@H]12` [(3aR)-(+)-Sclareolide], the CC50 at 24 h (AC50 (uM) modified / 1000) was 64.9 µM.
For `CC(C)CCC[C@@H](C)[C@H]1CC[C@H]2[C@@H]3CC[C@@H]4C[C@H](O)CC[C@]4(C)[C@H]3CC[C@]12C` [(3alpha,5beta)-Cholestan-3-ol], the CC50 at 24 h (AC50 (uM) modified / 1000) was > 50 µM.
For `CCOC(=O)COc1ccc(C)cc1` [(4-Methylphenoxy) acetic acid ethyl ester], the CC50 at 24 h (AC50 (uM) modified / 1000) was > 90 µM.
For `C[C@H]1[C@@H](c2ccccc2)NC(=O)N1C` [(4R,5S)-(-)-1,5-Dimethyl-4-phenyl-2-imidazolidinone], the CC50 at 24 h (AC50 (uM) modified / 1000) was > 90 µM.
For `CCCCC/C=C\CCC=O` [(4Z)-4-Decenal], the CC50 at 24 h (AC50 (uM) modified / 1000) was > 90 µM.
For `COC(=O)CC[C@H](N)C(=O)O` [(5)-Methyl L-glutamate], the CC50 at 24 h (AC50 (uM) modified / 1000) was > 50 µM.
For `O=C(c1ccccc1)c1cc(Cl)ccc1O` [(5-Chloro-2-hydroxyphenyl)phenylmethanone], the CC50 at 24 h (AC50 (uM) modified / 1000) was > 90 µM.
For `CCC1(CO)COCOC1` [(5-Ethyl-1,3-dioxan-5-yl)methanol], the CC50 at 24 h (AC50 (uM) modified / 1000) was > 90 µM.
With `C[C@H](O)[C@H](O)[C@H]1CNc2nc(N)[nH]c(=O)c2N1` [(6R)-Tetrahydrobiopterin dihydrochloride] the CC50 at 24 h (AC50 (uM) modified / 1000) was > 50 µM.
In the case of `CC/C=C\CCCCCO` [(6Z)-Non-6-en-1-ol], the CC50 at 24 h (AC50 (uM) modified / 1000) is reported as > 90 µM.
With `CCOC(=O)/C=C(C)/C=C/C[C@@H](C)CCCC(C)C` [(7S)-Hydroprene] the CC50 at 24 h (AC50 (uM) modified / 1000, Tox21_110001=Tox21_111800, viability, 1 nM T3 present, 24 h) was > 50 µM and the CC50 at 24 h (AC50 (uM) modified / 1000, Tox21_110001=Tox21_301066, viability, 1 nM T3 present, 24 h) was 87.1 µM.
In the case of `C/C=C\C/C=C/CCCCCCCCOC(C)=O` [(9E,12Z)-9,12-Tetradecadien-1-ol acetate], the CC50 at 24 h (AC50 (uM) modified / 1000) is reported as > 90 µM.
Molecule `CCCCCCCC/C=C\CCCCCCCC(=O)N(CCO)CCO` [(9Z)-N,N-Bis(2-hydroxyethyl)octadec-9-enamide] has a CC50 at 24 h (AC50 (uM) modified / 1000) of 43.9 µM.
For `CCCCCCCC/C=C\CCCCCCCCO` [(9Z)-Octadec-9-en-1-ol], the CC50 at 24 h (AC50 (uM) modified / 1000) was > 90 µM.
With `CCCCCCCC/C=C\CCCCCCCC(N)=O` [(9Z)-Octadec-9-enamide] the CC50 at 24 h (AC50 (uM) modified / 1000) was > 90 µM.
Molecule `CCCCCC[C@@H](O)C/C=C\CCCCCCCC(=O)O` [(9Z,12R)-12-Hydroxyoctadec-9-enoic acid] has a CC50 at 24 h (AC50 (uM) modified / 1000) of 80.8 µM.
